From patent US20240254083A1, “HETEROCYCLIC TRPML1 AGONISTS AND USES THEREOF” (Libra Therapeutics, Inc., priority 2021, published 2024) come the findings set out here.

SMILES strings stand for the structures.

T1 sequence (Q9GZU1 whole entry): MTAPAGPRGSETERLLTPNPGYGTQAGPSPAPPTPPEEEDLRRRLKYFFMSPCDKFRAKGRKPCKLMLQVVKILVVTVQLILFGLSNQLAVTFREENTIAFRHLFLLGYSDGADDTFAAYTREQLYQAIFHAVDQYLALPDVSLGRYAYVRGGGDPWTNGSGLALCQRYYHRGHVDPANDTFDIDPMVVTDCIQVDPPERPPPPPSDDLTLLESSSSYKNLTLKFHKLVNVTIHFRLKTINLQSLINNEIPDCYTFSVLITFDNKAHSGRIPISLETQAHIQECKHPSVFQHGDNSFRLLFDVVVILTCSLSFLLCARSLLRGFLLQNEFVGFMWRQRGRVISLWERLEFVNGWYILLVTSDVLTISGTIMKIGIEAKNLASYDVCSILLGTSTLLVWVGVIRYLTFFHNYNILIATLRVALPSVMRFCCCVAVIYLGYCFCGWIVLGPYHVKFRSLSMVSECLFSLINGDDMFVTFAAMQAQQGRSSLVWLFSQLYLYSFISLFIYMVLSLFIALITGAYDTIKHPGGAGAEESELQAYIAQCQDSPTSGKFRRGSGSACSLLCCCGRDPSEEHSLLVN

The assay addresses T1, hTRPML1 (Homo sapiens, UniProt Q9GZU1).
T1 construct: expressed in transfected cells
The assay is described as follows: Cellular TRPML1 assay (FLIPR, GCaMP6f calcium read-out). The format is cell-based. The conditions noted are these: HEK T-REx/GCaMP6f/TRPML1 cells, FLIPR TETRA, kinetic response over 300 seconds; read-out: hTRPML1 FLIPR pEC50 (converted). Here is the method: Buffers and reagents • PBS (D-PBS without calcium and magnesium; EuroClone) • Trypsin (Trypsin 0.05%, EDTA 0.02% in PBS; EuroClone) • DMSO (Sigma) • Ca^2+ free Tyrode's buffer: in-house solution (130 mM NaCl, 5 mM KCl, 1 mM MgCl2, 5 mM NaHCO3, 20 mM HEPES in water at pH 7.4; sterile filtered). • Opti-MEM (Gibco) • Agonist: ML-SA1 (Sigma); stock: 60 mM in DMSO, stored at −20° C. • Blocker: ML-SI3 (in house synthesis); stock: 20 mM in DMSO, stored at −20° C.
Cell line • The final clone for the TRPML1 assay is HEK T-REx/GCaMP6f/TRPML1. • GCaMP6f is a genetically encoded calcium indicator that is stably expressed in this cell line and used as a fluorescent read-out.
Cells are seeded at 15000 cells/well either in 25 µl/well of growth medium or in 20 μl/well of Optimem+0.5% FBS without selection antibiotics. Twenty-four hours later, cells are assayed for the response to various compounds using the Ca^2+ sensitive GCaMP6f protein stably expressed in the cells as readout.
The experiment is performed in a 384-well format according to the following procedures for either Ca^2+ free or Optimem conditions: • Ca^2+ free condition (in absence of extracellular Ca^2+): • 24 h after seeding, pre-incubate the cells at room temperature for about 10′. • Then remove the culture medium and replace it with 20 μL of Ca^2+ free Tyrode's buffer. • Start the experiment at the FLIPR^TETRA by injecting 10 μL/w of 3× concentrated test compounds and controls in Ca^2+ free Tyrode's buffer. Monitor the kinetic response over a period of 300 seconds. • Final DMSO concentration: 0.5% • Optimem condition (in presence of extracellular Ca^2+): • 24 h after seeding, pre-incubate the cells at room temperature for about 10′. • Start the experiment at the FLIPR^TETRA by injecting 10 μL/w of 3× concentrated test compounds and controls in Ca^2+ free Tyrode's buffer. Monitor the kinetic response over a period of 300 seconds. • Final DMSO concentration: 0.5%
Data from FLIPR^TETRA measurements are analyzed with the Genedata Screener© software.
Regarding `COCCN(C(=O)c1ccc(S(=O)(=O)N(C)C)cc1)c1ccccc1N1CCC(Oc2ccccc2)CC1` [Example 3, 4-(N,N-dimethylsulfamoyl)-N-(2-methoxyethyl)-N-(2-(4-phenoxypiperidin-1-yl)phenyl)benzamide], the EC50 is > 3.16 µM.
Turning to `CN(C)S(=O)(=O)c1ccc(S(=O)(=O)Nc2ccccc2N2CCC[C@@H](Oc3ccccc3)C2)cc1` (single isomer, unassigned) [Example 30], the EC50 is 1 to 3.16 µM.
The result for `Cc1ccc(S(=O)(=O)Nc2ccccc2N2CCN(C(=O)Oc3ccccc3)CC2)cc1C` [Example 39, phenyl 4-(2-((3,4-dimethylphenyl)sulfonamido)phenyl) piperazine-1-carboxylate] reads > 3.16 µM.
Then `CN(C)S(=O)(=O)c1ccc(S(=O)(=O)Nc2ccccc2N2CCC[C@@H](COc3ccccc3)C2)cc1` (single isomer, unassigned) [Example 36], with 1 to 3.16 µM; and `CN(C)S(=O)(=O)c1ccc(S(=O)(=O)Nc2cccc(F)c2N2CCC(Oc3ccc(C(F)(F)F)cn3)CC2)cc1` [Example 43, N^1-(3-fluoro-2-(4-((5-(trifluoromethyl)pyridin-2-yl)oxy)piperidin-1-yl)phenyl)-N^4,N^4-dimethylbenzene-1,4-disulfonamide], with < 1 µM; and `CCCN(C(=O)c1ccc(S(=O)(=O)N(C)C)cc1)c1ccccc1N1CCC(Oc2ccccc2)CC1` [Example 4, 4-(N,N-dimethylsulfamoyl)-N-(2-(4-phenoxypiperidin-1-yl)phenyl)-N-propylbenzamide], with 1 to 3.16 µM.
The result for `CN(C)S(=O)(=O)c1ccc(S(=O)(=O)Nc2cccc(F)c2N2CCC(C)(c3ccccc3)CC2)cc1` [Example 37, N^1-(3-fluoro-2-(4-methyl-4-phenylpiperidin-1-yl)phenyl)-N^4,N^4-dimethylbenzene-1,4 disulfonamide] reads < 1 µM.
For `CN(C)S(=O)(=O)c1ccc(S(=O)(=O)Nc2ccccc2N2CCC[C@@H](OCc3ccccc3)C2)cc1` (single isomer, unassigned) [Example 27], the EC50 is 1 to 3.16 µM.
Then `Cc1ccc(C)c(S(=O)(=O)Nc2ccccc2N2CCN(C(=O)OC(C)(C)C)CC2)c1` [Example 20, tert-butyl 4-(2-((2,5-dimethylphenyl)sulfonamido)phenyl)piperazine-1-carboxylate], with > 3.16 µM; and `CN(C)S(=O)(=O)c1ccc(S(=O)(=O)Nc2cc(Cl)ccc2N2CCC(Oc3ccccn3)CC2)cc1` [Example 13, N^1-(5-chloro-2-(4-(pyridin-2-yloxy)piperidin-1-yl)phenyl)-N^4,N^4-dimethylbenzene-1,4-disulfonamide], with 1 to 3.16 µM; and `Cc1ccc(N2CCC(Oc3ccccn3)CC2)c(NS(=O)(=O)c2ccc(S(=O)(=O)N(C)C)cc2)c1` [Example 14, N^1,N^1-dimethyl-N^4-(5-methyl-2-(4-(pyridin-2-yloxy)piperidin-1-yl)phenyl)benzene-1,4-disulfonamide], with < 1 µM.
On to `CN(C(=O)c1ccc(S(=O)(=O)N(C)C)cc1)c1cccc(F)c1N1CCC(Oc2ccccn2)CC1` [Example 9, 4-(N,N-dimethylsulfamoyl)-N-(3-fluoro-2-(4-(pyridin-2-yloxy)piperidin-1-yl)phenyl)-N-methylbenzamide], for which the EC50 is > 3.16 µM.
On to `CN(C)S(=O)(=O)c1ccc(S(=O)(=O)Nc2cccc(F)c2N2CCC(Oc3ccc(Cl)cn3)CC2)cc1` [Example 44, N^1-(2-(4-((5-chloropyridin-2-yl)oxy)piperidin-1-yl)-3-fluorophenyl)-N^4,N^4-dimethylbenzene-1,4-disulfonamide], for which the EC50 is < 1 µM.
As to `Cc1ccc(N2CCC(Oc3ccccn3)CC2)c(N(C(=O)c2ccc(S(=O)(=O)N(C)C)cc2)C2CCCC2)c1` [Example 16, N-cyclopentyl-4-(N,N-dimethylsulfamoyl)-N-(5-methyl-2-(4-(pyridin-2-yloxy)piperidin-1-yl)phenyl)benzamide], the EC50 is 1 to 3.16 µM.
The result for `CN(C)S(=O)(=O)c1ccc(S(=O)(=O)Nc2cccc(Cl)c2N2CCC(Oc3ccccn3)CC2)cc1` [Example 7, N^1-(3-chloro-2-(4-(pyridin-2-yloxy)piperidin-1-yl)phenyl)-N^4,N^4-dimethylbenzene-1,4-disulfonamide] reads 1 to 3.16 µM.
In the case of `CN(C)S(=O)(=O)c1ccc(S(=O)(=O)Nc2cccc(F)c2N2CCC(Oc3ncc(Cl)cc3F)CC2)cc1` [Example 45, N^1-(2-(4-((5-chloro-3-fluoropyridin-2-yl)oxy)piperidin-1-yl)-3-fluorophenyl)-N^4,N^4-dimethylbenzene-1,4-disulfonamide], the EC50 was < 1 µM.
In the case of `CN(C)S(=O)(=O)c1ccc(S(=O)(=O)Nc2ccccc2N2CCC[C@H](Oc3ccccc3)C2)cc1` (single isomer, unassigned) [Example 29], the EC50 was > 3.16 µM.
For `CC(C)(C)OC(=O)N1CCN(c2ccccc2NS(=O)(=O)c2ccc(OC(F)(F)F)cc2)CC1` [Example 21, tert-butyl 4-(2-((4-(trifluoromethoxy)phenyl)sulfonamido)phenyl) piperazine-1-carboxylate], the EC50 was > 3.16 µM.
As to `CN(C)S(=O)(=O)c1ccc(S(=O)(=O)Nc2ccccc2N2CCC[C@H](COc3ccccc3)C2)cc1` (single isomer, unassigned) [Example 35], the EC50 is 1 to 3.16 µM.
Then `CN(C)S(=O)(=O)c1ccc(C(=O)N(c2cccc(F)c2N2CCC(Oc3ccccn3)CC2)C2CCC2)cc1` [Example 12, N-cyclobutyl-4-(N,N-dimethylsulfamoyl)-N-(3-fluoro-2-(4-(pyridin-2-yloxy)piperidin-1-yl)phenyl)benzamide], with > 3.16 µM; and `CC(C)(C)CC(=O)N1CCN(c2ccccc2NS(=O)(=O)c2ccc(C(F)(F)F)cc2)CC1` [Example 42, N-(2-(4-(3,3-dimethylbutanoyl)piperazin-1-yl)phenyl)-4-(trifluoromethyl)benzenesulfonamide], with > 3.16 µM.
Consider `CC(C)N(C(=O)c1ccc(S(=O)(=O)N(C)C)cc1)c1cccc(F)c1N1CCC(Oc2ccccn2)CC1` [Example 11, 4-(N,N-dimethylsulfamoyl)-N-(3-fluoro-2-(4-(pyridin-2-yloxy)piperidin-1-yl)phenyl)-N-isopropylbenzamide], for which the EC50 was > 3.16 µM.
With `CN(C)S(=O)(=O)c1ccc(S(=O)(=O)Nc2ccccc2N2CCCCCCC2)cc1` [Example 24, N1-(2-(azocan-1-yl)phenyl)-N4,N4-dimethylbenzene-1,4-disulfonamide], the EC50 was 1 to 3.16 µM.
The result for `CN(C)S(=O)(=O)c1ccc(S(=O)(=O)Nc2ccccc2N2CCC[C@H](OCc3ccccc3)C2)cc1` (single isomer, unassigned) [Example 26] reads 1 to 3.16 µM.
Then `Cc1ccc(S(=O)(=O)Nc2ccccc2N2CCN(C(=O)CC(C)(C)C)CC2)cc1C` [Example 41, N-(2-(4-(3,3-dimethylbutanoyl)piperazin-1-yl)phenyl)-3,4-dimethylbenzenesulfonamide], with > 3.16 µM; and `Cc1ccc(S(=O)(=O)Nc2ccccc2N2CCN(C(=O)OC(C)(C)C)CC2)c(F)c1` [Example 18, tert-butyl 4-(2-((2-fluoro-4-methylphenyl)sulfonamido)phenyl)piperazine-1-carboxylate], with > 3.16 µM.
